The experiment has as its system TNBS induced IBD rats. The experiment can be described thus: Experiment III: TNBS-ethanol induced IBD in rats. The class given is in vivo, Wistar rats. Conditions: for Colonic lesion score: CON 0, M 6.00 ± 3.25; for Colon weight of length: CON 0.106 ± 0.011, M 0.376 ± 0.133; for MDA / MPO / SOD: colon homogenate; for MDA: CON 0.0360 ± 0.00632, M 0.0274 ± 0.0055; for MPO: CON 21.993 ± 2.061, M 134.038 ± 1.979; for SOD: CON 46.400 ± 8.202, M 38.005 ± 4.121. An excerpt:
Wister rats were randomly divided into seven groups. There are four […] in each group, including normal control (CON) group, Model (M) group, positive control (SASP) group, diammonium glycyrrhizinate gavage administration (DI) group, diammonium glycyrrhizinate low dose (DGD) group, diammonium glycyrrhizinate medium dose (DGZ) group, and diammonium glycyrrhizinate high dose (DGG) group. No water and diets restriction were applied to mice during the period of the experiment.
Rats were anesthetized by ether. TNBS dissolved in 30% ethanol were injected into rat colon 8 cm in depth through anus with an i.v. tubing. The concentration of TNBS was 100 mg/Kg at the volumes of 0.20 ml/100 g. The rats were held up side down for 1 minute after the injection before released back to the cages.
There are seven groups total in this test. Rats in all groups were treated identically to create IBD models and the experimental conditions are described in the following.
Normal control (Con) group: Both TNBS-ethanol solution and treated drugs were replaced by normal saline. The dose of drug for treatment was 0.20 ml/100 g. Model (M) group: After creating the TNBS-ethanol induced IBD model in rats, normal saline instead of drug was used as a blank control for the comparison of drug treatment. The drug dose of IBD treatment was 0.20 ml/100 g. SASP group: SASP (22.5 mg/100 g) was used as a positive control. SASP was applied to rats through anus after ether anesthesia. Diammonium glycyrrhetate gavage administration (DI) group: Diammonium glycyrrhetate (10 mg/kg) was provided to rats by gavage after ether anesthesia. Diammonium glycyrrhetate, anal administration, low dose (DGD) group: Diammonium glycyrrhetate (2 mg/kg) was provided to rats through anus after ether anesthesia. Diammonium glycyrrhetate, anal administration, medium dose (DGZ) group: Diammonium glycyrrhetate (10 mg/kg) was provided to rats through anus after ether anesthesia. Diammonium glycyrrhetate, anal administration, high dose (DGG) group: Diammonium glycyrrhetate (50 mg/kg) was provided to rats through anus after ether anesthesia.
During the experimental period, daily activities and body weights of rats were investigated and recorded. Ten days after IBD model establishment, fasting was introduced to rats but water was provided continuously. Before sacrificing the rats, feces samples were taken for OB test; eyeballs were removed for blood sampling and serum samples were obtained after centrifugation. Radioimmunoassay kits were used to detect IL-1β, IL-6 and TNF-α in serum. The rats were cervical executed; organs of spleen and thymus were removed and weighted for the index calculation. The whole length of colon was weighted; weight per unit length of colon was calculated. The degrees of colon injury were evaluated according to the reference 23 with some modifications. We included the changes of intestinal adhesion, colon ulcer, and inflammatory as the score marks. The standard of score is same as we mentioned previously. The 3 mm colon samples were taken from the end part of colon; fixed by either neutral formaldehyde solution or 2.5% of glutaraldehyde solution for anatomy dissecting. The samples fixed by neutral formaldehyde solution were sent to perform H-E staining and immunohistochemical staining (IL-10, COX-II, and ICAM-1). The samples fixed by 2.5% of glutaraldehyde solution were photo-imaged by both scanning electron microscope and transmission electron microscope. The rest of samples were handled at ice-cold temperature to make 10% homogenization solution and stored at −20° C. for future use. MOP, SOD, MDA and amounts of tissue proteins were determined by Maehly, Pyrogallol, TBA, and Lowry methods.

Setting [1] is: DG medium dose group, through anus 10 mg/kg.
Setting [2] is: DGD group: through anus, low dose 2 mg/kg.
Setting [3] is: DGG group: through anus, high dose 50 mg/kg.
Where [4] appears, read: DGZ group: through anus, medium dose 10 mg/kg.
The mark [5] stands for this setting: SASP group: 22.5 mg/100 g through anus.
The mark [6] stands for this setting: positive control (SASP) group: 22.5 mg/100 g through anus.

SMILES strings stand for the structures.

In the case of `CC1(C(=O)[O-])CCC2(C)CCC3(C)C(=CC(=O)C4C5(C)CCC([O-])C(C)(C)C5CCC43C)C2C1.[Na+].[Na+]` (stereo not shown) [Disodium glycyrrhetate, disodium glycyrrhetate], the “HE staining of colon tissue (FIG. 3)” value (DG gavage administration group, 10 mg/kg) is reported as “less severe of symptoms with no ulcer formation”; the “HE staining of colon tissue (FIG. 3)” value (DG high dose group, through anus 50 mg/kg) is “relieved symptoms and no ulcer formation is observed”; the “HE staining of colon tissue (FIG. 3)” value (DG low dose group, through anus 2 mg/kg) is reported as “relatively severe symptoms but without ulcer formation”; the “HE staining of colon tissue (FIG. 3)” value under setting [1] is recorded as “no ulcer formation is seen”. Further, the “colon mucosa by scanning electron microscope (FIG. 4)” value under setting [1] is listed as “relieved symptoms with less swelling”. In addition, the Colonic lesion score reads like this: (DGD group: through anus, low dose 2 mg/kg (table head: mg/100 g)) 3.00 ± 1.69^ΔΔ; (DGG group: through anus, high dose 50 mg/kg (table head: mg/100 g)) 1.50 ± 0.89^ΔΔ; (DGZ group: through anus, medium dose 10 mg/kg (table head: mg/100 g)) 2.50 ± 1.39^ΔΔ; (DI group: gavage, 10 mg/kg (table head: mg/100 g)) 2.00 ± 1.20^ΔΔ. Moreover, the “Colon weight of length” value under setting [2] is reported as 0.385 ± 0.218 g/cm; the “Colon weight of length” value under setting [3] was determined as 0.174 ± 0.059 g/cm; the “Colon weight of length” value under setting [4] came out at 0.177 ± 0.065 g/cm; the “Colon weight of length” value (DI group: gavage, 10 mg/kg) turned out to be 0.240 ± 0.085 g/cm. Further, the MDA runs as follows: under setting [2], 0.0431 ± 0.0243 µmol/mg; under setting [3], 0.0338 ± 0.0115 µmol/mg; under setting [4], 0.0365 ± 0.0151 µmol/mg; (DI group: gavage, 10 mg/kg) 0.0907 ± 0.0302 µmol/mg. Further, the MPO is 141.993 ± 2.494 U/g under setting [2]; 111.753 ± 24.864 U/g under setting [3]; 83.868 ± 16.465^Δ U/g under setting [4]; 100.576 ± 10.137^ΔΔ U/g (DI group: gavage, 10 mg/kg). Besides, the SOD is reported as 28.847 ± 16.942 U/ml under setting [2]; 59.984 ± 3.205^Δ U/ml under setting [3]; 46.095 ± 8.065 U/ml under setting [4]; 18.774 ± 8.700 U/ml (DI group: gavage, 10 mg/kg).
Take `O=C(O)c1cc(/N=N/c2ccc(S(=O)(=O)Nc3ccccn3)cc2)ccc1O` [SASP, Sulfasalazine, reference compound]: under setting [5], the Colonic lesion score is recorded as 3.00 ± 1.69^ΔΔ, the “Colon weight of length” value turned out to be 0.354 ± 0.087 g/cm, the MDA was 0.0594 ± 0.0287 µmol/mg and the MPO was 44.916 ± 3.525^ΔΔ U/g. The compound further returned an SOD under setting [5] of 33.884 ± 2.656 U/ml. For the same compound, the Thymus index (SASP group: 22.5 mg/100 g through anus, CON 0.9302 ± 0.0984, M 0.0319 ± 0.1504) is on record as 0.2375 ± 0.0792 mg/g. The compound also had a Spleen index (SASP group: 22.5 mg/100 g through anus, CON 2.309 ± 0.135, M 3.893 ± 0.210) of 3.326 ± 0.552 mg/g. Also, under setting [6], the “HE staining of colon tissue (FIG. 3)” value is “symptoms are reduced with no ulcers formation” and the “colon mucosa by scanning electron microscope (FIG. 4)” value was “symptoms were relieved but with swelling in mucosa layer”.
